Values quoted from earlier work as cited in the CATMoS acute toxicity set (Mansouri et al. 2021).

Assay: rat acute oral toxicity
Settings: in vivo
Excerpt: […]The data set underlying the modeling effort for this project was initially compiled by NICEATM and U.S. EPA’s CCTE. Briefly, LD50 data were collected from rat acute oral systemic toxicity tests, including limit tests, ranges/confidence intervals, and discrete LD50 values. The full data set included 21,200 LD50 entries for 15,688 substances. […] Data were reviewed to ensure that LD50 values with obvious errors in the extracted data such as unit conversion errors (e.g., comma and decimal separator misplacements) were either fixed or removed. After this review, 16,209 LD50 values remained. Many of the chemicals represented had multiple LD50 entries, requiring that a single representative value per Chemical Abstracts Service Registry Number (CASRN) identifier be defined to facilitate modeling efforts. Based on ATWG feedback and to define the representative LD50 as a protective value while accounting for the distribution across multiple LD50s, the median of the lowest quartile was computed using only discrete LD50 values (omitting limit test data and range and confidence interval data). A detailed summary of the data compilation is available online on the NICEATM webpage dedicated to the collaborative modeling project (NTP 2020).
[…][…] For categorical designations, limit test and range/confidence interval LD50 data were integrated wherever possible. As such, the number of chemicals with end point values/calls varies across the modeling end points (Table 3) based on whether chemicals had representative LD50 values and/or other data. If a chemical had both, the representative value was used to determine categorical calls rather than limit test data. Some data were useable only for certain end points and categories depending on the thresholds. For example, ranges that spanned multiple hazard categories were considered only for the binary (very toxic/nontoxic) end points and omitted from rendering a determination for hazard category assignment.
[…]The final data set comprising 11,992 chemicals was split into training and evaluation sets […], respectively. This process was performed semirandomly by ordering chemicals based on the five end points (categorical and continuous LD50 values) and partitioning every fourth record into the evaluation set accordingly. This approach was taken to ensure an equivalent distribution of the LD50 values and the different hazard categories between the training and the evaluation sets without supervised sampling of the chemicals based on structures (Figure 1A). The sources of the chemical structures were also kept equivalent between the two sets, with chemical structures obtained from DSSTox, being the highest quality, representing over 75% of each set (Figure 1B).

| Structure (SMILES) | LD50 [mg/kg] |
| --- | --- |
| CCOP(=S)(OCC)SCC(=O)OC | 1000 |
| CCCC(=O)N(C)C(=O)Oc1cc(C)cc(C(C)C)c1 | 1220 |
| COc1ccc(Cc2nccc3cc(OC)c(OC)cc23)cc1OC | 68.8 |
| CCC(C)OC(CBr)c1cccc(Cl)c1 (centres undefined) | 250 |
| CC(C)(N1CC1C#N)N1CC1C(N)=O (centres undefined) | 3100 |
| Cc1c(I)c(=O)n(-c2ccccc2)n1C | 2060 |
| O=S(=O)(O)CO | 3200 |
| Cc1ccc(Oc2cc(SCC(=O)NN)ncn2)cc1 | 460 |
| CN(C)S(=O)(=O)c1c(Cl)c(Cl)c(Cl)c2[nH]c(C(F)(F)F)nc12 | 4.77 |
| CCOc1ccc(C2CC(N(CC)CC)c3ccccc32)cc1 (centres undefined) | 860 |
| Oc1ccc(-c2ccccc2)cc1CN1CCCC1 | 30 |
| CC(C)(C)c1cc([N+](=O)[O-])cc([N+](=O)[O-])c1O | 26 |
| CCCCNC(N)=O | 1260 |
| CCOP(=S)(OCC)Oc1nc(Cl)n(C(C)C)n1 | 27 |
| C=CCOC(=O)CC1CCCCC1 | 900 |
| O=c1ccc(=O)[nH][nH]1 | 10800 |
| Brc1cc2c(cc1Br)Oc1cc(Br)c(Br)cc1O2 | 0.1 |
| CNC(=O)ON=C1CSCS1 | 13 |
| O=C(Nc1ccccc1)c1ccccc1I | 6400 |
| Cc1ccc(NC2=NCCN2)c(Cl)c1 | 420 |
| COc1ccccc1OC | 890 |
| C=CC=CC=CCCCCC | 7560 |

| Structure (SMILES) | LD50 [mg/kg] |
| --- | --- |
| O=C(O)c1cccc(O)c1O | 1800 |
| CCCOC(=O)CC(SP(=S)(OC)OC)C(=O)OCCC (centres undefined) | 6000 |
| NCCCCCCCCCCC(=O)O | 14700 |
| CC1=Nc2ccc(Cl)cc2S(=O)(=O)N1 | 980 |
| CC(O)COC(=O)CBr (centres undefined) | 664 |
| CBr | 214 |
| CCN1CC2CN(C)CC(C1)C2OC(=O)c1ccc(Cl)cc1 (centres undefined) | 200 |
| O=C(O)Cn1c(=O)n(Cc2ccc(Br)cc2F)c(=O)c2ccc(F)cc21 | 2140 |
| CCOC(C1=NCC(C)(C)CN1)c1ccc(OC)c(F)c1 (centres undefined) | 320 |
| CCCCCCCCCCCCOCC(O)COS(=O)(O)=S (centres undefined) | 1820 |
| CC(C)OP(=O)(OC(C)C)SCc1ccccc1 | 550 |
| CCOC(=O)CCCCCCCCC(=O)OCC | 14500 |
| Cc1ccc2c(c1)CC(=O)c1cc(C(C)C(=O)O)ccc1O2 (centres undefined) | 147 |
| COc1ccccc1N1CCN(CCCOc2ccc(N)cc2)CC1 | 416 |
| O=[N+]([O-])c1ccc(/C=N/NC(=S)N2CCCCC2)o1 | 750 |
| CSc1ccc(OP(C)(C)=S)cc1C | 175 |
| C1C[SiH2]C1 | 1540 |
| c1nc(NC2CC2)c2ncn(C3CC3)c2n1 | 130 |
| CCC(C)OC(C[n+]1ccccc1)c1ccc(Cl)cc1 (centres undefined) | 250 |
| O=Cc1ccc2c(c1)OCO2 | 2700 |
| CCOP(=O)(OCC)SCC(=O)NC(C)(C)C#N | 3.5 |
| CCCCCCN | 670 |

| Structure (SMILES) | LD50 [mg/kg] |
| --- | --- |
| C[Se]C | 2100 |
| CNCCCC1(C#N)c2ccccc2CCc2ccccc21 | 889 |
| CCOCCN(C(=O)CCl)C(=C(C)C)c1ccccc1 | 983 |
| FC(F)(F)c1nc2c(Br)ccc(Br)c2[nH]1 | 18 |
| Clc1ccc(C(Cn2ccnc2)OCc2ccsc2Cl)c(Cl)c1 (centres undefined) | 770 |
| OC[C@H]1O[C@@H]2O[C@H]3[C@H](O)[C@@H](O)[C@@H](O[C@H]4[C@H](O)[C@@H](O)[C@@H](O[C@H]5[C@H](O)[C@@H](O)[C@@H](O[C@H]6[C@H](O)[C@@H](O)[C@@H](O[C@H]7[C@H](O)[C@@H](O)[C@@H](O[C@H]8[C@H](O)[C@@H](O)[C@@H](O[C@H]1[C@H](O)[C@H]2O)O[C@@H]8CO)O[C@@H]7CO)O[C@@H]6CO)O[C@@H]5CO)O[C@@H]4CO)O[C@@H]3CO | 18800 |
| ClCCN1CCCC(C(c2ccccc2)c2ccccc2)C1 (centres undefined) | 970 |
| CC=CC=CC#N | 712 |
| C=CC(=O)OCC[N+](C)(C)C | 500 |
| CCCCN(CCO)CCCC | 1070 |
| CCC(C(O)c1ccc2[nH]c(=O)ccc2c1)N1CCN(c2cccc(Cl)c2)CC1 (centres undefined) | 500 |
| CCCCC(CC)OCCOCCO (centres undefined) | 2940 |
| CCC(O)CO (centres undefined) | 16000 |
| ON=CC(O)(C#Cc1ccccc1)c1ccccc1 (centres undefined) | 8750 |
| CCN(CC)C(C)C(=O)c1ccccc1 (centres undefined) | 400 |
| CCOC(=O)Nc1ccc2c(c1)N(C(=O)CCN(CC)CC)c1ccccc1CC2 | 138 |
| O=C1CCc2cc(C(=O)CCN3CCC(Cc4ccccc4)CC3)ccc2N1 | 500 |
| N#CCCC1(CCC#N)c2ccccc2-c2ccccc21 | 2180 |
| C=COC(=O)CCCCC(=O)OC | 6200 |
| S=c1[nH]c2ccc(Cl)cc2[nH]1 | 150 |
